Results from PubChem BioAssay AID1963835 (Molecular Pharmacology Branch, DTP, NCI, 2024).
“And” between values parts separate entries of the source, which are not always exact repeats. Identical values can stand only once.

Test system: 699152-130-R-J1-PDC complex spheroid viability
Experiment: Anticancer human tumor 699152-130-R-J1-PDC patient-derived pancreatic carcinoma cell line growth inhibition [POLQ]
Settings: for viability, T/C: stronger effect = lower value
Method: Multicellular complex tumor spheroid response to Polymerase (POL) inhibitors (novobiocin, ART-558, RP6685) in combination with a variety of drugs and investigational agents in selected tumor cell lines
The POL inhibitors (novobiocin, ART-558, and RP6685) were evaluated both individually and in combination with standard of care and investigational anticancer small molecules within a complex spheroid model of solid tumors. . Complex spheroids include a stromal component modeled by human endothelial cells (HUVEC) and fibroblasts modeled by human mesenchymal stem cells (MSCs). The concentration ranges selected for each drug and investigational agent were based upon clinically achievable concentrations if the clinical Cmax of the agent was known.
Compounds. The drugs and investigational agents: novobiocin (NSC847541), ART-558 (NSC835418), RP-6685 (NSC848927), peposertib (NSC802822), ceralasertib (NSC780249), elimusertib (NSC800525), camonsertib (NSC841442), AZD-1390 (NSC803789), olaparib (NSC753686), talazoparib (NSC767125), rucaparib (NSC756644), sotorasib (NSC818433), MRTX-1133 (NSC836407), SN-38 (NSC673596), topotecan (NSC609699), epotoside (NSC141540), doxorubicin (NSC123127), gemcitabine (NSC613327), 5-fluorouracil (NSC19893), paclitaxel (NSC125973), vemurafenib (NSC761431), MSA-2 (NSC828583), SN-011 (NSC837082), adavosertib (NSC754352), prexasertib (NSC758257), carboplatin (NSC241240) and oxaliplatin (NSC266046), were obtained from the National Cancer Institute (NCI) Developmental Therapeutics Program Chemical Repository (21). The FDA-approved anticancer drug set is available from the Developmental Therapeutics Program at https://dtp.cancer.gov/organization/dscb/obtaining/. […] The stock solutions were prepared in dimethyl sulfoxide (DMSO, Sigma-Aldrich, St. Louis, MO, cat. D2650), except for the platinum compounds which were prepared in saline (Quality Biological, Gaithersburg, MD, cat. 114-055-101), at 800-fold the tested concentration and stored at -70 degrees C prior to their use. All drugs and investigational agents were tested over a range starting from a high concentration at or near the clinical Cmax and decreasing in half-log increments. If the clinical Cmax for an agent had not been determined, the highest concentration tested was 10 microM, except for SN-38, which was tested at a high concentration of 1 microM.
Cell Culture. All cells were maintained in an incubator at 37 degrees C and 5% CO2 with 95% humidity. The PDC lines were cultured according to standard operating procedures established by the NCI PDMR (https://pdmr.cancer.gov). Table 3 of the manuscript, lists the cell lines along with the number of the three cell types plated to form the mct-spheroids and media for tumor cell growth. After thawing, all PDC lines, except 997537-175-T-J1-PDC and 415267-285-R-J2-PDC, were cultured in Matrigel-coated flasks prepared with a working solution of 1X Ham's F-12 nutrient mix, without supplementation (Thermo Fisher Scientific, cat. 11765054), 100 U/mL penicillin-streptomycin (Thermo Fisher Scientific, cat. 15140122), and 2.5% Matrigel (Corning Inc., Corning, NY, cat. 354248) for the first three passages. The two PDC lines 997537-175-T-J1-PDC and 415267-285-R-J2-PDC were cultured on uncoated flasks. The 857933-349-R-J2-PDC line was cultured in 6C/Colon 1B media containing advanced DMEM/F-12 (Thermo Fisher Scientific, cat. 12634028), 10 mM HEPES (Thermo Fisher Scientific, cat. 15630080), 1X GlutaMAX supplement (Thermo Fisher Scientific, cat. 35050061), 0.1 mg/mL primocin (InvivoGen, San Diego, CA, cat. ant-pm-2), 10% defined fetal bovine serum, heat inactivated (HyClone Laboratories Inc., Logan, UT, cat. SH30070.03HI), 50% L-WRN conditioned media (ATCC, cat. CRL-3276), 1.25 mM N-Acetyl-L-cysteine (Sigma-Aldrich, cat. A9165), 10 mM nicotinamide (Sigma-Aldrich, cat. N0636), 1X B-27 supplement (Thermo Fisher Scientific, cat. 17504044), 1X N-2 supplement (Thermo Fisher Scientific, cat. […]

[1] = curve of first compound, second compound 0.0316 µM
[2] = curve of first compound, second compound 0.1 µM
[3] = curve of first compound, second compound 0.316 µM
[4] = curve of first compound, second compound 1 µM
[5] = curve of first compound, second compound 3.16 µM
[6] = curve of first compound, second compound 10 µM
[7] = second compound 0.0316 µM, first compound 0.0316 µM
[8] = second compound 0.0316 µM, first compound 0.1 µM
[9] = second compound 0.0316 µM, first compound 0.316 µM
[10] = second compound 0.0316 µM, first compound 1 µM
[11] = second compound 0.1 µM, first compound 0.0316 µM
[12] = second compound 0.1 µM, first compound 0.1 µM
[13] = second compound 0.1 µM, first compound 0.316 µM
[14] = second compound 0.1 µM, first compound 1 µM
[15] = second compound 0.316 µM, first compound 0.0316 µM
[16] = second compound 0.316 µM, first compound 0.1 µM
[17] = second compound 0.316 µM, first compound 0.316 µM
[18] = second compound 0.316 µM, first compound 1 µM
[19] = second compound 1 µM, first compound 0.0316 µM
[20] = second compound 1 µM, first compound 0.1 µM
[21] = second compound 1 µM, first compound 0.316 µM
[22] = second compound 1 µM, first compound 1 µM
[23] = second compound 3.16 µM, first compound 0.0316 µM
[24] = second compound 3.16 µM, first compound 0.1 µM
[25] = second compound 3.16 µM, first compound 0.316 µM
[26] = second compound 3.16 µM, first compound 1 µM
[27] = second compound 10 µM, first compound 0.0316 µM
[28] = second compound 10 µM, first compound 0.1 µM
[29] = second compound 10 µM, first compound 0.316 µM
[30] = second compound 10 µM, first compound 1 µM
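Further: spheroids exposed to agents for 7 days before viability reading.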
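Wherever viability, T/C is given: percent of DMSO vehicle control viability so 100% = vehicle and 0% = no viable signal.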

COc1cccc(OCCCN)c1-c1cc(Nc2cnc(C#N)cn2)n[nH]1 + Nc1ccc(C#CCN(C(=O)Cc2ncc(C(F)(F)F)cc2C(F)(F)F)c2ccc(F)cc2)nn1
IC50 [1]: > 1000 nM | IC50 [2]: > 1000 nM | IC50 [3]: > 1000 nM | IC50 [4]: > 1000 nM | IC50 [5]: > 1000 nM | IC50 [6]: > 1000 nM | viability, T/C (second compound 0.0316 µM, first compound 0.00316 µM): 90.3% | viability, T/C (second compound 0.0316 µM, first compound 0.01 µM): 101% | viability, T/C [7]: 72.8% | viability, T/C [8]: 64.2% | viability, T/C [9]: 62.4% | viability, T/C [10]: 65% | viability, T/C (second compound 0.1 µM, first compound 0.00316 µM): 92.2% | viability, T/C (second compound 0.1 µM, first compound 0.01 µM): 101% | viability, T/C [11]: 73.4% | viability, T/C [12]: 59.3% | viability, T/C [13]: 65.8% | viability, T/C [14]: 56.1% | viability, T/C (second compound 0.316 µM, first compound 0.00316 µM): 99.3% | viability, T/C (second compound 0.316 µM, first compound 0.01 µM): 93.8% | viability, T/C [15]: 74.8% | viability, T/C [16]: 68.6% | viability, T/C [17]: 60.8% | viability, T/C [18]: 59.9% | viability, T/C (second compound 1 µM, first compound 0.00316 µM): 111% | viability, T/C (second compound 1 µM, first compound 0.01 µM): 100% | viability, T/C [19]: 79.6% | viability, T/C [20]: 69% | viability, T/C [21]: 62.2% | viability, T/C [22]: 55.8% | viability, T/C (second compound 3.16 µM, first compound 0.00316 µM): 109% | viability, T/C (second compound 3.16 µM, first compound 0.01 µM): 94.4% | viability, T/C [23]: 70.1% | viability, T/C [24]: 60.6% | viability, T/C [25]: 66.1% | viability, T/C [26]: 65% | viability, T/C (second compound 10 µM, first compound 0.00316 µM): 121% | viability, T/C (second compound 10 µM, first compound 0.01 µM): 92.3% | viability, T/C [27]: 71.8% | viability, T/C [28]: 64.7% | viability, T/C [29]: 66.3% | viability, T/C [30]: 60.5%

CCc1c2c(nc3ccc(O)cc13)-c1cc3c(c(=O)n1C2)COC(=O)[C@]3(O)CC
viability, T/C (compound 0.00316 µM): 79.8% and 73.5% and 71.1% | viability, T/C (compound 0.01 µM): 59.2% and 56% and 49.9% | viability, T/C (compound 0.0316 µM): 55.4% and 52.2% and 41.7% | viability, T/C (compound 0.1 µM): 45.9% and 44.3% and 37.6% | viability, T/C (compound 0.316 µM): 24.9% and 35.3% and 28.6% | viability, T/C (compound 1 µM): 7.27% and 9.92% and 8.91% | IC50 (curve of compound): 47.1 nM and 38.3 nM and 19.1 nM

CC1COCCN1c1cc(C2(S(C)(=N)=O)CC2)nc(-c2ccnc3[nH]ccc23)n1 (stereo unspecified) + Cc1cccc(N(C)C(=O)C2C(O)CCN2c2nc(C)cc(C(F)(F)F)c2C#N)c1
IC50 [1]: > 10000 nM | IC50 [2]: > 10000 nM | IC50 [3]: > 10000 nM | IC50 [4]: > 10000 nM | IC50 [5]: > 10000 nM | IC50 [6]: > 10000 nM | viability, T/C [7]: 102% | viability, T/C [8]: 95.6% | viability, T/C [9]: 90.2% | viability, T/C [10]: 99.9% | viability, T/C (second compound 0.0316 µM, first compound 3.16 µM): 81.4% | viability, T/C (second compound 0.0316 µM, first compound 10 µM): 64% | viability, T/C [11]: 99.8% | viability, T/C [12]: 110% | viability, T/C [13]: 89.5% | viability, T/C [14]: 92.8% | viability, T/C (second compound 0.1 µM, first compound 3.16 µM): 75.2% | viability, T/C (second compound 0.1 µM, first compound 10 µM): 73.7% | viability, T/C [15]: 110% | viability, T/C [16]: 91.7% | viability, T/C [17]: 102% | viability, T/C [18]: 83.5% | viability, T/C (second compound 0.316 µM, first compound 3.16 µM): 76.5% | viability, T/C (second compound 0.316 µM, first compound 10 µM): 68.8% | viability, T/C [19]: 107% | viability, T/C [20]: 97.8% | viability, T/C [21]: 97.5% | viability, T/C [22]: 81.7% | viability, T/C (second compound 1 µM, first compound 3.16 µM): 80.2% | viability, T/C (second compound 1 µM, first compound 10 µM): 67.8% | viability, T/C [23]: 102% | viability, T/C [24]: 97.9% | viability, T/C [25]: 99% | viability, T/C [26]: 96.3% | viability, T/C (second compound 3.16 µM, first compound 3.16 µM): 77.5% | viability, T/C (second compound 3.16 µM, first compound 10 µM): 70.8% | viability, T/C [27]: 104% | viability, T/C [28]: 110% | viability, T/C [29]: 103% | viability, T/C [30]: 85.8% | viability, T/C (second compound 10 µM, first compound 3.16 µM): 95.1% | viability, T/C (second compound 10 µM, first compound 10 µM): 69.8%
